Source: PubChem BioAssay (NCI)
Several values for one entry are separate records, joined by “and”; a condition that tells them apart may be missing. Identical values can stand only once.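 Where inhibition never reached the appropriate level, the endpoint shown equals the highest concentration tested. Otherwise, values were interpolated linearly from a five-concentration, 48-hour dose response in 96-well plates. The concentration for 50% growth inhibition is given as GI50. TGI denotes the concentration required for complete inhibition of growth.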

Key:
Assay in all cases: NCI tumour cell line growth inhibition, 48 h
KM20L2 colon = tested on: KM20L2 colon
XF 498 CNS = tested on: XF 498 CNS
DMS 114 small cell lung = tested on: DMS 114 small cell lung
SNB-78 CNS = tested on: SNB-78 CNS
DMS 273 small cell lung = tested on: DMS 273 small cell lung
DLD-1 colon = tested on: DLD-1 colon
HOP-18 NSCLC = tested on: HOP-18 NSCLC
MDA-N = tested on: MDA-N
P388/ADR leukemia = tested on: P388/ADR leukemia
P388 leukemia = tested on: P388 leukemia
RXF-631 renal = tested on: RXF-631 renal

Structure (SMILES) | TGI (KM20L2 colon) | TGI (XF 498 CNS) [µM] | TGI (DMS 114 small cell lung) [µM] | TGI (SNB-78 CNS) [µM] | TGI (DMS 273 small cell lung) | TGI (DLD-1 colon) [µM] | TGI (HOP-18 NSCLC) [µM] | TGI (MDA-N) | also measured
COc1ccc2c([nH]c3cc(O)c(C)cc32)c1CC=C(C)C | > 25 µM | > 25 | > 25 | > 25 | 16.8 µM | > 25 | – | – | GI50 (KM20L2 colon): 16.3 µM; GI50 (DMS 273 small cell lung): 8.43 µM; GI50 (DLD-1 colon): 9.22 µM
C/C=C/C=C\C(=O)C1c2cccc(O)c2C(=O)c2c(O)cc(C)cc21 (configuration not stated) | 3.94 µM | 0.57 | 1.39 | – | 3.06 µM | 3.67 | 3.32 | – | –
Cc1cc2c(=O)c3ccccc3oc2c(C#N)c1C | – | – | – | – | – | – | – | > 100 µM | –
CCOC(=O)/C(=C/c1ccc(Cl)cc1)N(CC)CC | – | > 100 | – | > 100 | – | > 100 | > 100 | – | –
O=C(O)C1CCCCC1C(=O)Nc1nc2ccccc2[nH]1 (configuration not stated) | – | – | – | – | – | – | – | > 100 µM | –
Cc1ccc(C(O)/C(=N/N)c2nc3ccc([N+](=O)[O-])cc3[nH]c2=O)cc1 (configuration not stated) | > 100 µM | > 100 | > 100 | > 100 | > 100 µM | > 100 | – | – | –
C/C=C1\C[C@@H]2C(OC)Nc3cc(O)c(OC)cc3C(=O)N2C1 (some centres not stated) | 0.0909 µM and 0.045 µM | 0.00398 | 0.0035 | – | 0.0917 µM and < 0.0143 µM | 20 | – | 0.0319 µM and < 0.0163 µM | TGI (P388/ADR leukemia): 0.0104 µM; GI50 (XF 498 CNS): 0.00191 µM; TGI (P388 leukemia): < 0.0123 µM; GI50 (MDA-N): 0.014 µM
Nc1nc(Cl)nc2c1ncn2C1CCC(COP(=O)(O)OP(=O)(O)OP(=O)(O)O)O1 (configuration not stated) | – | – | – | – | – | – | – | > 100 µM | –
COc1cccc(N2C(=O)[C@H]3[C@H]4CC(C(C)(C)C)CC[C@H]4c4c([nH]c5ccccc45)[C@H]3C2=O)c1 (some centres not stated) | – | – | 38 | 35.3 | 36.8 µM | 65.1 | – | – | TGI (RXF-631 renal): 33.2 µM
C[C@]12CC/C(=N\OC(=O)Nc3ccccc3)C=C1CC[C@@H]1C2CC[C@@]2(C)C1CC[C@@H]2OC(=O)Nc1ccccc1 (some centres not stated) | > 100 µM | 27.3 | > 100 | > 100 | > 100 µM | – | > 100 | – | –
[O]=[W](=[O])([OH])[OH] | – | – | – | – | – | – | – | > 100 µM | GI50 (MDA-N): > 100 µM
COC(=O)C1=C(C)N(NC(=O)c2cccc(Cl)c2)C(C)(O)C12CCOC2=O (configuration not stated) | > 100 µM | > 100 | > 100 | > 100 | > 100 µM | – | – | – | TGI (RXF-631 renal): > 100 µM
COc1ccc(OC)c(-c2cc(C(=O)O)c3cc4ccccc4cc3n2)c1 | – | – | – | – | – | – | – | > 100 µM | –
NC(=O)OCC(COc1ccc(Cl)cc1)OC(=O)c1cc([N+](=O)[O-])cc([N+](=O)[O-])c1 (configuration not stated) | > 100 µM | > 100 | 53.8 | > 100 | > 100 µM | > 100 | > 100 | – | TGI (RXF-631 renal): > 100 µM
O=C(NCCCCCCNC(=O)NC1OCC(O)C(O)C1O)NC1OCC(O)C(O)C1O (configuration not stated) | – | – | > 100 | > 100 | – | > 100 | – | – | –
Cc1ccc(S(=O)(=O)NC(=O)C#CCOC2CCCCO2)cc1 (configuration not stated) | > 100 µM | > 100 | > 100 | – | > 100 µM | > 100 | > 100 | – | TGI (RXF-631 renal): > 100 µM
CCC[CH2][Ge]([CH2]CCC)([CH2]CCC)[O]C(=O)C(OC(C)=O)c1ccccc1 (configuration not stated) | 15.2 µM | 15.4 | – | 24.7 | > 37 µM | 19 | 43.8 | – | GI50 (KM20L2 colon): 0.652 µM; GI50 (HOP-18 NSCLC): 16.2 µM; GI50 (XF 498 CNS): 2.57 µM; GI50 (SNB-78 CNS): 2.99 µM; GI50 (DMS 273 small cell lung): 5.84 µM; GI50 (DLD-1 colon): 1.76 µM
CCCCCCCCCCCCCC(=O)OC1C(CO)OC(=O)C1O (configuration not stated) | > 100 µM | > 100 | > 100 | > 100 | > 100 µM | > 100 | > 100 | – | –
CN1CCN(CCCN2c3ccccc3Sc3ccc(C(F)(F)F)cc32)CC1 | 5.22 µM | – | 23.4 | 32.1 | 19.8 µM | 26.9 | 21.5 | 12.5 µM and 12.3 µM | –
COc1ccc(CCN2COc3ccc4ccc(=O)oc4c3C2)cc1OC | – | – | – | – | – | – | – | > 100 µM | –
Cc1cc(O)c(O)c(Oc2cc(C)cc(O)c2O)c1 | – | – | – | – | – | – | – | > 100 µM | –
CS(=O)(=O)N(CC(=O)O)Cc1ccccc1 | – | – | – | – | – | – | – | > 100 µM | –
N#CC(C(=O)C(=O)Nc1ccc(Cl)c(Cl)c1)c1ccc(Cl)cc1 (configuration not stated) | > 100 µM | > 100 | 45.7 | > 100 | > 100 µM | > 100 | > 100 | – | –
